Laboratory results reported in ChEMBL document CHEMBL3881525, “Analogs of dehydrophenylahistins and their therapeutic use” (2007).
≈ marks a conversion by molar mass, not a printed value. Calls of active or inactive are those of the source. No cut-off for these calls is given here.

Experiments:
[1] = Antifungal activity against Trichophyton rubrum isolate 1 measured after 48 hrs by broth dilution method; type: functional
[2] = tested on: Trichophyton rubrum; test: Fungicidal activity against Trichophyton rubrum isolate 1 measured after 48 hrs by broth dilution method; type: functional; settings: isolate 1, 48 h
[3] = Antifungal activity against Trichophyton rubrum isolate 2 measured after 48 hrs by broth dilution method; type: functional
[4] = tested on: Trichophyton rubrum; test: Fungicidal activity against Trichophyton rubrum isolate 2 measured after 48 hrs by broth dilution method; type: functional; settings: isolate 2, 48 h
[5] = Antifungal activity against Trichophyton mentagrophytes isolate 1 measured after 48 hrs by broth dilution method; type: functional
[6] = tested on: Trichophyton mentagrophytes; test: Fungicidal activity against Trichophyton mentagrophytes isolate 1 measured after 48 hrs by broth dilution method; type: functional; settings: isolate 1, 48 h
[7] = Antifungal activity against Trichophyton mentagrophytes isolate 2 measured after 48 hrs by broth dilution method; type: functional
[8] = Antifungal activity against Epidermophyton floccosum isolate 1 measured after 48 hrs by broth dilution method; type: functional
[9] = Antifungal activity against Epidermophyton floccosum isolate 2 measured after 48 hrs by broth dilution method; type: functional
[10] = Cytotoxicity against mouse P388 cells assessed as reduction in cell viability measured after 48 hrs by resazurin dye-based fluorometric analysis; type: functional; settings: P388, 48 h
[11] = Cytotoxicity against human HT-29 cells assessed as reduction in cell viability measured after 48 hrs by resazurin dye-based fluorometric analysis; type: functional; settings: Homo sapiens, HT-29, 48 h
[12] = tested on: Aspergillus fumigatus; test: Fungicidal activity against Aspergillus fumigatus isolate 2 measured after 48 hrs by broth dilution method; type: functional; settings: isolate 2, 48 h
[13] = tested on: Candida albicans; test: Antifungal activity against Candida albicans 90028 measured after 48 hrs by broth dilution method; type: functional; settings: Candida albicans, 90028, 48 h
[14] = tested on: Candida albicans; test: Antifungal activity against Candida albicans ATCC 10231 measured after 48 hrs by broth dilution method; type: functional; settings: ATCC 10231, 48 h
[15] = Antifungal activity against Candida glabrata measured after 48 hrs by broth dilution method; type: functional; settings: Nakaseomyces glabratus
[16] = tested on: Aspergillus fumigatus; test: Antifungal activity against Aspergillus fumigatus isolate 1 measured after 48 hrs by broth dilution method; type: functional; settings: isolate 1, 48 h
[17] = tested on: Aspergillus fumigatus; test: Antifungal activity against Aspergillus fumigatus isolate 2 measured after 48 hrs by broth dilution method; type: functional; settings: isolate 2, 48 h
[18] = Cytotoxicity against human MDA-MB-231 cells assessed as reduction in cell viability measured after 48 hrs by resazurin dye-based fluorometric analysis; type: functional; settings: MDA-MB-231, 48 h
[19] = Cytotoxicity against human NCI-H292 cells assessed as reduction in cell viability measured after 48 hrs by resazurin dye-based fluorometric analysis; type: functional; settings: NCI-H292, 48 h
[20] = Cytotoxicity against mouse B16F10 cells assessed as reduction in cell viability measured after 48 hrs by resazurin dye-based fluorometric analysis; type: functional; settings: B16-F10, 48 h
[21] = Antiproliferative activity against taxol-resistant human MES-SA/Dx5 cells expressing MDR1 mRNA and P-gp; type: functional, cell-based
[22] = Antiproliferative activity against human mitoxantrone-resistant HL60/MX2 cells; type: functional, cell-based; settings: HL-60
[23] = tested on: MES-SA; test: Ratio of EC50 for taxol-resistant human MES-SA/DX5 cells expressing MDR1 mRNA and P-gp to EC50 for taxol-sensitive human MES-SA cells; type: functional
[24] = tested on: HL-60; test: Ratio of EC50 for human mitoxantrone-sensitive HL60 cells to EC50 for human mitoxantrone-resistant HL60/MX2 cells; type: functional
[25] = target: T1, Tubulin (Homo sapiens) (UniProt P68371+Q9H4B7+P0DPH7+P68366+Q13509+Q71U36+P04350+Q3ZCM7+P07437+P68363+Q9BQE3+Q6PEY2+Q13885+Q9BVA1+Q9BUF5); test: Induction of microtubule depolymerization in HUVEC at 1.5 to 5 uM by turbidity spectroscopic analysis; type: cell-based
[26] = target: T1, Tubulin (Homo sapiens); test: Induction of microtubule depolymerization in HUVEC at 20 nM measured after 30 mins by DAPI-staining based immunofluorescence analysis; type: cell-based
[27] = target: Tubulin (Candida albicans) (UniProt P87066+P10875+O93807); test: Inhibition of microtubule formation in Candida albicans; type: protein-complex assay
[28] = tested on: MCF7; test: Antimitotic activity in human MCF7 cells assessed as mitotic index measured after 20 hrs by DAPI-staining based fluorescence microscopic analysis; type: functional, cell-based
[29] = tested on: MCF7; test: Antimitotic activity in human MCF7 cells assessed as bipolar cells with uncompressed chromosomes at mitotic block IC50 measured after 20 hrs by immunofluorescence analysis relative to control; type: functional
[30] = tested on: MCF7; test: Antimitotic activity in human MCF7 cells assessed as microtubule polymer at twice mitotic block IC50 measured after 20 hrs by immunofluorescence analysis relative to control; type: functional, cell-based
[31] = tested on: MCF7; test: Antimitotic activity in human MCF7 cells assessed as decrease in microtubule polymer formation measured after 20 hrs by immunofluorescence analysis relative to control; type: functional, cell-based
[32] = target: T1, Tubulin (Homo sapiens); test: Induction of microtubule instability in human MCF7 cells assessed as time spent for growth at IC25 for mitotic block measured after 20 hrs by immunofluorescence analysis; type: cell-based
[33] = target: T1, Tubulin (Homo sapiens); test: Induction of microtubule instability in human MCF7 cells assessed as time spent for shortening at IC25 for mitotic block measured after 20 hrs by immunofluorescence analysis; type: cell-based
[34] = target: T1, Tubulin (Homo sapiens); test: Induction of microtubule instability in human MCF7 cells assessed as time spent for attenuation at IC25 for mitotic block measured after 20 hrs by immunofluorescence analysis; type: cell-based
[35] = target: T1, Tubulin (Homo sapiens); test: Induction of microtubule instability in human MCF7 cells assessed as catastrophy frequency at IC25 for mitotic block measured after 20 hrs by immunofluorescence analysis; type: cell-based
[36] = target: T1, Tubulin (Homo sapiens); test: Induction of microtubule instability in human MCF7 cells assessed as rescue frequency at IC25 for mitotic block measured after 20 hrs by immunofluorescence analysis; type: cell-based
[37] = target: T1, Tubulin (Homo sapiens); test: Induction of microtubule instability in human MCF7 cells assessed as time spent for growth at IC50 for mitotic block measured after 20 hrs by immunofluorescence analysis; type: cell-based
[38] = target: T1, Tubulin (Homo sapiens); test: Induction of microtubule instability in human MCF7 cells assessed as time spent for shortening at IC50 for mitotic block measured after 20 hrs by immunofluorescence analysis; type: cell-based
[39] = target: T1, Tubulin (Homo sapiens); test: Induction of microtubule instability in human MCF7 cells assessed as time spent for attenuation at IC50 for mitotic block measured after 20 hrs by immunofluorescence analysis; type: cell-based
[40] = target: T1, Tubulin (Homo sapiens); test: Induction of microtubule instability in human MCF7 cells assessed as catastrophy frequency at IC50 for mitotic block measured after 20 hrs by immunofluorescence analysis; type: cell-based
[41] = target: T1, Tubulin (Homo sapiens); test: Induction of microtubule instability in human MCF7 cells assessed as rescue frequency at IC50 for mitotic block measured after 20 hrs by immunofluorescence analysis; type: cell-based
[42] = target: T1, Tubulin (Homo sapiens); test: Time required for induction of microtubule dynamic instability in human MCF7 cells at IC50 for mitotic block measured after 20 hrs by immunofluorescence analysis; type: cell-based
[43] = target: T1, Tubulin (Homo sapiens); test: Time required for induction of microtubule dynamic instability in human MCF7 cells at IC25 for mitotic block measured after 20 hrs by immunofluorescence analysis; type: cell-based
[44] = target: Tubulin (Bos taurus) (UniProt Q6B856+Q862L2+Q862F3); settings: 10 uM
Description: Inhibition of [3H]CLC binding to bovine brain tubulin at 10 uM measured after 120 mins in presence of GTP by scintillation counting method

[45] = tested on: HeLa; test: Effect on cell cycle progression in human HeLa cells assessed as reduction in 2N cells at 40 nM; type: functional, cell-based
[46] = tested on: HeLa; test: Effect on cell cycle progression in human HeLa cells assessed as increase in 4N cells at 40 nM; type: functional, cell-based
[47] = Cytotoxicity against human PC3 cells assessed as reduction in cell viability measured after 48 hrs by resazurin dye-based fluorometric analysis; type: functional; settings: PC-3, 48 h

Sequence of Tubulin (Candida albicans) (O93807 whole entry, looked up): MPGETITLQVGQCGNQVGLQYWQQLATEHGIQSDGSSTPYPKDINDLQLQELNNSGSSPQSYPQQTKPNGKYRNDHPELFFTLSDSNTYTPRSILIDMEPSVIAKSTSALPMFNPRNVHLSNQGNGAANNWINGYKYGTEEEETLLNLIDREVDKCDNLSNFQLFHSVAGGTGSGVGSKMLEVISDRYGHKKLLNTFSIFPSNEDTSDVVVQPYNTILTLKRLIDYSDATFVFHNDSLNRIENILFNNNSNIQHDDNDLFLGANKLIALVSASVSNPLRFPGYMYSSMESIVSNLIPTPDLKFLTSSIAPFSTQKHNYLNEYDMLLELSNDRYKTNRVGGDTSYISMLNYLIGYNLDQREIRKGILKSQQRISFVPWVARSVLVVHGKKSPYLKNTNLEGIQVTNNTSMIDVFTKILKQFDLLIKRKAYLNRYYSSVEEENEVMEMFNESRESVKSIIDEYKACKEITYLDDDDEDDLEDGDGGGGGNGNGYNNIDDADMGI
Sequence of Tubulin (Candida albicans) (P10875 whole entry, looked up): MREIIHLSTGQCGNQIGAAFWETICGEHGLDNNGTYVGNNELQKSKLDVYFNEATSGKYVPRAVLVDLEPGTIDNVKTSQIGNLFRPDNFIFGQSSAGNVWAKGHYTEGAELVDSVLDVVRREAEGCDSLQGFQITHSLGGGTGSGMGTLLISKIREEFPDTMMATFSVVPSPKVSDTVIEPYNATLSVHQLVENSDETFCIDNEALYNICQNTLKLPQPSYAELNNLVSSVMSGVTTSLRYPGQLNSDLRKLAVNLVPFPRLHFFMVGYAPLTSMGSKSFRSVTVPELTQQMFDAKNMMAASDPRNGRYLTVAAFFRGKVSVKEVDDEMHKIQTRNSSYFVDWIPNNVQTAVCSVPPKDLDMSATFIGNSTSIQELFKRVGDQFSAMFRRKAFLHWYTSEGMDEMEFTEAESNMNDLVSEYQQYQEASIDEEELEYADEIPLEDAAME
Sequence of Tubulin (Candida albicans) (P87066 whole entry, looked up): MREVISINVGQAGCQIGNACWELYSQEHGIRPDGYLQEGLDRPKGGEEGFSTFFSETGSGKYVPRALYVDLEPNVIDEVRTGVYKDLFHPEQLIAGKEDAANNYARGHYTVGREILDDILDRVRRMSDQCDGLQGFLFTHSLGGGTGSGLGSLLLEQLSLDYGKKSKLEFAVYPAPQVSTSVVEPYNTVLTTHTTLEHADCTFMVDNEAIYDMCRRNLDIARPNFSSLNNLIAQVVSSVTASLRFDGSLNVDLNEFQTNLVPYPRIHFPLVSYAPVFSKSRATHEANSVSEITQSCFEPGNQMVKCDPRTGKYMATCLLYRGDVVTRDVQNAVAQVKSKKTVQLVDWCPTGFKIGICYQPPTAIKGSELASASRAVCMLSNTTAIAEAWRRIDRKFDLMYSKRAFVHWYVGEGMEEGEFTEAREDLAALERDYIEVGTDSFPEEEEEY

## CC(C)(C)c1[nH]cnc1/C=C1\NC(=O)[C@H](Cc2ccccc2)NC1=O
[1]
  MIC: < 0.03 mg/L
[2]
  MFC: 0.125 mg/L (≈ 0.369 µM)
[3]
  MIC: < 0.03 mg/L
[4]
  MFC: < 0.03 mg/L
[5]
  MIC: 4 mg/L (≈ 11.8 µM)
[6]
  MFC: > 16 mg/L
[7]
  MIC: > 16 mg/L
[8]
  MIC: > 16 mg/L
[9]
  MIC: > 16 mg/L

## NS(=O)(=O)c1ccc(S(=O)(=O)Nc2cccc3c(Cl)c[nH]c23)cc1
[10]
  IC50: 0.15 mg/L (≈ 0.389 µM)

## COc1cc(/C=c2\[nH]c(=O)/c(=C/c3nc[nH]c3C(C)(C)C)[nH]c2=O)cc(OC)c1OC
[11]
  EC50: 0.819 to 2 µM
[12]
  MFC: > 16 mg/L
[13]
  MIC: > 32 mg/L
[14]
  MIC: > 32 mg/L
[15]
  MIC: > 32 mg/L
[16]
  MIC: > 16 mg/L
[17]
  MIC: 0.06 mg/L (≈ 0.141 µM)
[1]
  MIC: 0.06 mg/L (≈ 0.141 µM)
[2]
  MFC: > 16 mg/L
[3]
  MIC: < 0.03 mg/L
[4]
  MFC: < 0.03 mg/L
[5]
  MIC: 1 mg/L (≈ 2.34 µM)
[6]
  MFC: > 16 mg/L
[7]
  MIC: > 16 mg/L
[8]
  MIC: > 16 mg/L
[9]
  MIC: > 16 mg/L

## CC(C)(C)c1ocnc1/C=c1\[nH]c(=O)/c(=C/c2cccc(F)c2)[nH]c1=O
[11]
  EC50: 0.0163 to 0.0171 µM
[18]
  EC50: 0.024 µM
[19]
  EC50: 0.014 µM
[20]
  EC50: 0.013 µM
[21]
  IC50: 0.014 µM
[22]
  EC50: 0.014 µM
[23]
  Ratio EC50: 1.2
[24]
  Ratio EC50: 0.5
[25]
  Activity: Active
[26]
  Activity: Active

## CC(C)OC(=O)Nc1cccc(Cl)c1
[27]
  inhibition: Active

## COc1ccc(/C=C\c2cc(OC)c(OC)c(OC)c2)cc1O
[28]
  inhibition: Dose-dependent effect
[29]
  Activity: Active
[30]
  Activity: Active
[31]
  Activity: Dose-dependent effect
[32]
  TIME: 0.0045 h
[33]
  TIME: 0.0035 h
[34]
  TIME: 0.0075 h
[35]
  Activity: 1.52 min⁻¹
[36]
  Activity: 1.9 min⁻¹
[37]
  TIME: 0.0055 h
[38]
  TIME: 0.00367 h
[39]
  TIME: 0.00917 h
[40]
  Activity: 1.09 min⁻¹
[41]
  Activity: 2.79 min⁻¹
[42]
  TIME: 0.653 h
[43]
  TIME: 0.66 h
[44]
  inhibition: Active

## COC(=O)Nc1nc2cc(C(=O)c3cccs3)ccc2[nH]1
[45]
  Activity: Active
[46]
  Activity: Active
[27]
  inhibition: Active

## CC(C)(C)c1ocnc1/C=c1\[nH]c(=O)/c(=C/c2cc(F)cc(F)c2F)[nH]c1=O
[11]
  EC50: 0.0114 to 0.017 µM
[47]
  EC50: 0.021 µM
[18]
  EC50: 0.052 µM
[19]
  EC50: 0.016 µM
[20]
  EC50: > 2 µM
[21]
  IC50: 0.013 µM
[22]
  EC50: 0.019 µM
[23]
  Ratio EC50: 1
[24]
  Ratio EC50: 0.7
[25]
  Activity: Active
[26]
  Activity: Active
